Here are results for two compounds from patent publication US12083129B2, “Treatment of breast cancer using combination therapies comprising an ATP competitive AKT inhibitor, a CDK4/6 inhibitor, and fulvestrant” (Genentech, Inc., priority 2019, dated 2024).

The assay deals with breast cancer cell lines. Kind of assay: single agent sensitivity of breast cancer cell lines. It counts as cell-based. The conditions noted are these: FIG. 1A and 1B. How it is done:
Cell lines were treated with agents described herein (e.g. ipatasertib, palbociclib, and fulvestrant). […] (See FIG. 1A and FIG. 1B). There was synergy between ipatasertib and palbociclib as show by the BLISS scores of FIGS. 2A, 2B, 2C, and 2D. […] The percent weight loss resulting from treatment is shown by FIGS. 8A and 8B.

Consider `CC(C)NC[C@@H](C(=O)N1CCN(c2ncnc3c2[C@H](C)C[C@H]3O)CC1)c1ccc(Cl)cc1` [ipatasertib, (S)-2-(4-chlorophenyl)-1-(4-((5R,7R)-7-hydroxy-5-methyl-6,7-dihydro-5H-cyclopenta[d]pyrimidin-4-yl)piperazin-1-yl)-3-(isopropylamino)propan-1-one], for which the “single agent sensitivity of breast cancer cell lines” value is “differential single agent sensitivity”.

With `CC(=O)c1c(C)c2cnc(Nc3ccc(N4CCNCC4)cn3)nc2n(C2CCCC2)c1=O` [palbociclib, 6-acetyl-8-cyclopentyl-5-methyl-2-{[5-(piperazin-1-yl)pyridin-2-yl]amino}pyrido[2,3-d]pyrimidin-7(8H)-one], the “single agent sensitivity of breast cancer cell lines” value is listed as “differential single agent sensitivity”.
